Experimental data: ChEMBL document CHEMBL2311489 (Eur J Med Chem, 2013)
The source made the active and inactive calls. The rule behind the calls is not given here.

Legend:
[1] = target: 5-hydroxytryptamine receptor 2A (Homo sapiens, UniProt P28223); test: biochemical
Description: Displacement of [3H]-ketanserin from human 5HT2A receptor expressed in HEK293 after 1.5 hrs

[2] = target: T1, 5-hydroxytryptamine receptor 7 (Homo sapiens, UniProt P34969); test: biochemical
[3] = target: T2, 5-hydroxytryptamine receptor 1A (Homo sapiens, UniProt P08908); test: biochemical
T2 sequence (P08908 whole entry): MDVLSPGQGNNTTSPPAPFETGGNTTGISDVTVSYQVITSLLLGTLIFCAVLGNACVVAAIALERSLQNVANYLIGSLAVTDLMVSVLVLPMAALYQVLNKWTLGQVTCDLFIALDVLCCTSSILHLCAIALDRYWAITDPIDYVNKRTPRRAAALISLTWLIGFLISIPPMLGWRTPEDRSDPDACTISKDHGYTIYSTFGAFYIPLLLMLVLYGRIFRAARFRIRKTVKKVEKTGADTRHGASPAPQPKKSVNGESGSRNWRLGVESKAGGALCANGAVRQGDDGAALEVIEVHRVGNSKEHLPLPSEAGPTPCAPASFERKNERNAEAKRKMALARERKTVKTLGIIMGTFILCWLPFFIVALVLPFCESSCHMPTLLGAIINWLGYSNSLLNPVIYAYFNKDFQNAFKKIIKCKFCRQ

[4] = target: T3, 5-hydroxytryptamine receptor 6 (Homo sapiens, UniProt P50406); test: biochemical
Description: (§1) Displacement of [3H]-LSD from human 5HT6 receptor expressed in HEK293 after 1 hr

Mus musculus [5] = species on record: Mus musculus; test: animal or person; conditions: Swiss albino, ip, read-out: ID50
Description: Antipsychotic activity in ip dosed Swiss albino mouse assessed as inhibition of apomorphine-induced climbing behavior administered 10 mins before apomorphine-challenge measured after 2 mins

[6] = target: T2, 5-hydroxytryptamine receptor 1A
Description: Agonist activity at human 5HT1A receptor expressed in CHO cells assessed as cAMP accumulation

[7] = target: D(3) dopamine receptor (Homo sapiens) (UniProt P35462); test: Displacement of [3H]-methylspiperone from human dopamine D3 receptor expressed in HEK293 at 10^-7 M after 1 hr; format: cell-based
Mus musculus [8] = species on record: Mus musculus; test: animal or person; conditions: Swiss albino, ip, 20 min, read-out: ID50
Description: Antipsychotic activity in ip dosed Swiss albino mouse assessed as inhibition of (+/-)DOI-induced head twitch response after 20 mins

Mus musculus [9] = test: Antidepressant activity in Swiss albino mouse assessed as reduction of immobility time at 10 mg/kg, ip measured during last 4 mins of a 6 mins test session by forced swim test; format: functional; set-up: scale not given: the % may be the effect or the level left; conditions: route intraperitoneal
[10] = target: Sodium-dependent serotonin transporter (Rattus norvegicus, UniProt P31652); test: biochemical
D(2) dopamine receptor = D(2) dopamine receptor (Homo sapiens, UniProt P14416); test: biochemical; format: cell-based, HEK293
Description: Displacement of [3H]-raclopride from human dopamine D2L receptor expressed in HEK293 after 1 hr

Mus musculus [11] = test: Antidepressant activity in Swiss albino mouse assessed as reduction of immobility time at 20 mg/kg, ip measured during last 4 mins of a 6 mins test session by forced swim test; format: functional; set-up: scale not given: the % may be the effect or the level left; conditions: route intraperitoneal
[12] = target: D(3) dopamine receptor (Homo sapiens) (UniProt P35462); test: Displacement of [3H]-methylspiperone from human dopamine D3 receptor expressed in HEK293 at 10^-6 M after 1 hr; format: cell-based
Mus musculus [13] = test: Antipsychotic activity in CD1 mouse assessed as inhibition MK-801-evoked hyperactivity at 2.5 to 20 mg/kg, ip after 30 mins; format: functional, organism-based
[14] = target: T1, 5-hydroxytryptamine receptor 7
[15] = target: T4, Adrenergic receptor alpha-1 (Rattus norvegicus, UniProt P15823+P23944+P43140)
T4 sequence (P15823 whole entry): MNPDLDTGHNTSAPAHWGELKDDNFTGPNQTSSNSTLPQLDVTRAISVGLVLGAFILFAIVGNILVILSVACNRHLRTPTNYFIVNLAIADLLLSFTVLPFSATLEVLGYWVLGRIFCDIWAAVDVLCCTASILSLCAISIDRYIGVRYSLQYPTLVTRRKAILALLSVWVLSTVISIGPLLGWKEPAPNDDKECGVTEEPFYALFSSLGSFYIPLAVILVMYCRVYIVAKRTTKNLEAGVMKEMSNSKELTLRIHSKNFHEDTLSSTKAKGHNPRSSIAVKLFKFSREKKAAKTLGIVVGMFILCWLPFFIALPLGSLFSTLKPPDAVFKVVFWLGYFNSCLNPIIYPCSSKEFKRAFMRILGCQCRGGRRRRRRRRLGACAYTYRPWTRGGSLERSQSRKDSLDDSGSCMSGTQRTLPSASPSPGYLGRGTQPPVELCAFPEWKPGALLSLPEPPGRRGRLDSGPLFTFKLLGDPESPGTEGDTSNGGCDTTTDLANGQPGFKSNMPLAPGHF
T4 sequence (P23944 whole entry): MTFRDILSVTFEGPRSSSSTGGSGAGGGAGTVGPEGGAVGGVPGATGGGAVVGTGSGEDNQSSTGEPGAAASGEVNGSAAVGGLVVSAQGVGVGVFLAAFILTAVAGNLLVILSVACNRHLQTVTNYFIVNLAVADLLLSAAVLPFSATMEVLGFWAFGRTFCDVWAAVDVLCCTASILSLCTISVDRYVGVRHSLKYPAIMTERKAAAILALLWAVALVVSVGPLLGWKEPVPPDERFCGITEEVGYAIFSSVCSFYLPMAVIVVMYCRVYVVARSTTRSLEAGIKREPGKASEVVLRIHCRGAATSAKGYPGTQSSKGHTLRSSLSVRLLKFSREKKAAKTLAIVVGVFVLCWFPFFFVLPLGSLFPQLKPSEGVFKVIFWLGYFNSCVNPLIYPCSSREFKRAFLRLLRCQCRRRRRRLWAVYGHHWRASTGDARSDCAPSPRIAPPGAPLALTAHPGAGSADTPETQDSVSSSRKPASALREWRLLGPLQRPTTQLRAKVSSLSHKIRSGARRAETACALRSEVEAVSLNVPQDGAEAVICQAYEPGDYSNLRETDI
T4 sequence (P43140 whole entry): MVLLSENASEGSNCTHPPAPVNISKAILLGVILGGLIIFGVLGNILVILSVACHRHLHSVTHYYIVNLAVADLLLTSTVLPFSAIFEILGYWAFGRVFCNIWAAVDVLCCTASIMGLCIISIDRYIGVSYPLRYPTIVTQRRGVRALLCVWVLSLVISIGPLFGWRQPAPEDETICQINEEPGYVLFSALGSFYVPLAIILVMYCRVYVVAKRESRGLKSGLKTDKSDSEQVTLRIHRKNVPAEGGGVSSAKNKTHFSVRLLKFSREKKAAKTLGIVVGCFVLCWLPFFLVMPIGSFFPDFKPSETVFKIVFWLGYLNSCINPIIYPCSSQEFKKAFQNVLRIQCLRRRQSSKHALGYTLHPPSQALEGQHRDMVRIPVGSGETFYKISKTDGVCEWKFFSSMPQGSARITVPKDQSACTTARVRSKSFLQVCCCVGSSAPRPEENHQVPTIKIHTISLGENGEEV
Description: Displacement of [3H]-Prazosin from adrenergic alpha1 receptor in rat cortex after 30 mins by scintillation counting

Mus musculus [16] = test: Toxicity in Swiss albino mouse assessed as locomotor activity at 5 to 20 mg/kg, ip measured after 2 to 6 mins; format: organism-based; set-up: route intraperitoneal; conditions: in vivo
Mus musculus [17] = test: Antipsychotic activity in Swiss albino mouse assessed as inhibition of apomorphine-induced climbing behavior at 5 mg/kg, ip administered 10 mins before apomorphine-challenge measured after 2 mins; format: functional; conditions: route intraperitoneal
[18] = target: T2, 5-hydroxytryptamine receptor 1A; remark: listed apart in the source
Mus musculus [19] = test: Toxicity in CD1 mouse assessed as increase of MK-801-evoked hyperactivity at 10 mg/kg, ip after 30 mins; format: organism-based; set-up: dose 10 mg/kg, route intraperitoneal; conditions: in vivo, 0.5 h
[20] = target: T1, 5-hydroxytryptamine receptor 7; remark: listed apart in the source
Mus musculus [21] = test: Toxicity in Swiss albino mouse assessed as locomotor activity at 20 mg/kg, ip measured after 2 to 6 mins; format: organism-based; set-up: dose 20 mg/kg, route intraperitoneal; conditions: in vivo
[22] = target: T3, 5-hydroxytryptamine receptor 6
Description: as §1

Mus musculus [23] = test: Toxicity in CD1 mouse assessed as increase of MK-801-evoked hyperactivity at 20 mg/kg, ip after 30 mins; format: organism-based; set-up: dose 20 mg/kg, route intraperitoneal; conditions: in vivo, 0.5 h
Mus musculus [24] = test: Antipsychotic activity in Swiss albino mouse assessed as inhibition of apomorphine-induced climbing behavior at 2.5 mg/kg, ip administered 10 mins before apomorphine-challenge measured after 2 mins; format: functional, organism-based; set-up: dose 2.5 mg/kg
Mus musculus [25] = test: Antidepressant activity in Swiss albino mouse assessed as reduction of immobility time at 5 mg/kg, ip measured during last 4 mins of a 6 mins test session by forced swim test; format: functional; set-up: scale not given: the % may be the effect or the level left; conditions: route intraperitoneal
Mus musculus [26] = test: Antipsychotic activity in CD1 mouse assessed as inhibition MK-801-evoked hyperactivity at 10 to 20 mg/kg, ip after 30 mins; format: functional, organism-based

Sequence of D(2) dopamine receptor (P14416 whole entry): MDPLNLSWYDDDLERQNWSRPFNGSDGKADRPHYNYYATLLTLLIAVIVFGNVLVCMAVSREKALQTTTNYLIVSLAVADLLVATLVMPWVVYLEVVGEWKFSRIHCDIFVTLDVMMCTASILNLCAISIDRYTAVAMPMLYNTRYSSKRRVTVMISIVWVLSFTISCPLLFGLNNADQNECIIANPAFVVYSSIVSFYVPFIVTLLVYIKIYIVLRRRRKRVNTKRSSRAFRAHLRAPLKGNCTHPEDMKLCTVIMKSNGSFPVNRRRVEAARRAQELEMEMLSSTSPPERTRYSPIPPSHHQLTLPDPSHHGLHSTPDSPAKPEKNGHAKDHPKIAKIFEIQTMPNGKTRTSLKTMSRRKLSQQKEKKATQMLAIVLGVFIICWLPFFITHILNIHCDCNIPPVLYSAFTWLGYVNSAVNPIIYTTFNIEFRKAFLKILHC
Sequence of Sodium-dependent serotonin transporter (P31652 whole entry): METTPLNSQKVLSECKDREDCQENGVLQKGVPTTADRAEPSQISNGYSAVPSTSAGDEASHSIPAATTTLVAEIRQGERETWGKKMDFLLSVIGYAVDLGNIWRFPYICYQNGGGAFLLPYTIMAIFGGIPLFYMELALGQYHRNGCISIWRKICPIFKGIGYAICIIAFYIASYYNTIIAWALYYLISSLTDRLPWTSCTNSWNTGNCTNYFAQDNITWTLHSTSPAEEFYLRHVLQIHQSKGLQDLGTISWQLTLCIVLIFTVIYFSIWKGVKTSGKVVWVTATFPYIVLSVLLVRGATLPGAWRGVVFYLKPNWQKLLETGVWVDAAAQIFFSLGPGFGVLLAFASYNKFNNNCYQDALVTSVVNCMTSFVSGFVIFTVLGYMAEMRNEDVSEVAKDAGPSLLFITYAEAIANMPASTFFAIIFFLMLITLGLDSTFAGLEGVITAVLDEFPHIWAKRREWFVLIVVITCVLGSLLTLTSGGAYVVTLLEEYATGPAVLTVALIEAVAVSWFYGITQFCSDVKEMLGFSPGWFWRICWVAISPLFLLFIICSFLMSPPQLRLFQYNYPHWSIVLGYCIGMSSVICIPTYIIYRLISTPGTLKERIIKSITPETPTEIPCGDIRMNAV
T1 sequence (P34969 whole entry): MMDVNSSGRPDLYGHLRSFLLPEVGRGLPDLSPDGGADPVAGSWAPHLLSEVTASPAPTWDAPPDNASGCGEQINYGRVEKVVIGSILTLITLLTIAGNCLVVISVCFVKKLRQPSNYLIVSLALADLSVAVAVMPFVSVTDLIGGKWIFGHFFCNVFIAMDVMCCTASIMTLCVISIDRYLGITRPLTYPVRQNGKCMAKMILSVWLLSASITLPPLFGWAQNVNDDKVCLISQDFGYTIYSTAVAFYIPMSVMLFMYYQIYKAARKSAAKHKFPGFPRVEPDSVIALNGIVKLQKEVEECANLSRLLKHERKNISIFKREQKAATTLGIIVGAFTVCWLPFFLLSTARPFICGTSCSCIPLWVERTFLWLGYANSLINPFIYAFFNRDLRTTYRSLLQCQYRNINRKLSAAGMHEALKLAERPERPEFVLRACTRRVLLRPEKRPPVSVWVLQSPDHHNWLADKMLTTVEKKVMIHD
T3 sequence (P50406 whole entry): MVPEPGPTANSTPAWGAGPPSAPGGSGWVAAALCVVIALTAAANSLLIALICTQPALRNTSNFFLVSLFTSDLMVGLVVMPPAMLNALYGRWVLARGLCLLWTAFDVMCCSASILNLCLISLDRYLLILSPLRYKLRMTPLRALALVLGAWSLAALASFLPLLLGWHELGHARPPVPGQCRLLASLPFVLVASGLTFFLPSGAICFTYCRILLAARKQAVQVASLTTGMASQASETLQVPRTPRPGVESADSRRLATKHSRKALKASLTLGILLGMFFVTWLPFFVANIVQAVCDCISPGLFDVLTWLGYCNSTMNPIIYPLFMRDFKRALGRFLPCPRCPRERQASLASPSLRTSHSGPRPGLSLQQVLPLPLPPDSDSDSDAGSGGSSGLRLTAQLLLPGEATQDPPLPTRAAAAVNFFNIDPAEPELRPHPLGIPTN
Sequence of 5-hydroxytryptamine receptor 2A (P28223 whole entry): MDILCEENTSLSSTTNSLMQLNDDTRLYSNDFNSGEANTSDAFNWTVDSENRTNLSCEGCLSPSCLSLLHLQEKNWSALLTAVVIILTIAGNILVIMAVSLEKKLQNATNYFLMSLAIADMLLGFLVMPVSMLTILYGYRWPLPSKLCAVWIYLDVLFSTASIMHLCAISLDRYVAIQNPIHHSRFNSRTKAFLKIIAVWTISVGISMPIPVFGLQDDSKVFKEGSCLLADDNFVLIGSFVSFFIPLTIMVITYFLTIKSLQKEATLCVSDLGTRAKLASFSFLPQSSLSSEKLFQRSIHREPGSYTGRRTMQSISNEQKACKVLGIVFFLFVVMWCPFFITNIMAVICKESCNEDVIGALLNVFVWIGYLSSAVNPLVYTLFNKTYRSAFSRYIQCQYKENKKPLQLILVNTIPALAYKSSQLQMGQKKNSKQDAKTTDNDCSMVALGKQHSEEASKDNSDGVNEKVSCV
Sequence of D(3) dopamine receptor (Homo sapiens) (P35462 whole entry): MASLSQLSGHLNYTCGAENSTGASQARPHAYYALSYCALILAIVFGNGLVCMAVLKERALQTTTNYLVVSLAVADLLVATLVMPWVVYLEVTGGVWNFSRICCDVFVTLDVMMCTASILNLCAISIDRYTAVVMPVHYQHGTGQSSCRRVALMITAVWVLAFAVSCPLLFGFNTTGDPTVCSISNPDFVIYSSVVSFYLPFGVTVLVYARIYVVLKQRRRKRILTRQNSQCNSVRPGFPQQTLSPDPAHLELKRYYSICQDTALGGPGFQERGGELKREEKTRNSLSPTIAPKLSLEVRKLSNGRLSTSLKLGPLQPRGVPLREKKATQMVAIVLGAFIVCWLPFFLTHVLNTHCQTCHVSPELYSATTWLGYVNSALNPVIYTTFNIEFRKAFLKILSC

SMILES | Ki [1] | Ki [2] | Ki [3] | Ki [4] | ED50 (Mus musculus [5]) | EC50 [6] | inhibition [7] | ED50 (Mus musculus [8]) | Activity (Mus musculus [9]) | Ki [10] | Ki (D(2) dopamine receptor) | Activity (Mus musculus [11]) | inhibition [12] | IC50 [14] | Ki [15] | Activity (Mus musculus [16]) | inhibition in vivo at 5 mg/kg (Mus musculus [17]) | further results
O=S(=O)(NCCCN1CCN(c2cccc(Cl)c2Cl)CC1)c1ccc2ncccc2c1 | 65 nM | 31 nM | 25 nM | 326 nM |  |  |  |  |  |  |  |  |  |  |  |  |  | 
O=S(=O)(NCCCCN1CCN(c2cccc(Cl)c2Cl)CC1)c1cnc2ccccc2c1 | 34 nM | 30 nM | 23 nM | 1330 nM | 20.7 mg/kg | 1650 nM | 94% | 20.2 mg/kg | 31% | 1200 nM | 9 nM | 30% | 99% | 7800 nM | 170 nM | Non-toxic | 49.3% | inhibition (Mus musculus [13]): inactive
O=S(=O)(NCCCCN1CCN(c2cccc(Cl)c2Cl)CC1)c1ccc2cccnc2c1 | 22 nM |  |  |  | 19.9 mg/kg | 865 nM | 99% | 4.58 mg/kg | 48% | 788 nM | 11 nM | 41% | 101% | 3800 nM | 136 nM |  | 43.6% | Ki [18]: 17 nM; Activity (Mus musculus [19]): Toxic; Ki [20]: 31 nM; Activity (Mus musculus [21]): Toxic; Ki [22]: 301 nM
O=S(=O)(NCCCCN1CCN(c2cccc(Cl)c2Cl)CC1)c1ccc2ncccc2c1 | 23 nM | 124 nM | 79 nM | 484 nM |  |  |  |  |  |  |  |  |  |  |  |  |  | 
CSc1ccc2c(c1)C(CCN)=CC2 [METHIOTHEPINE] |  |  |  |  |  |  |  |  |  |  |  |  |  | 2.2 nM |  |  |  | 
O=S(=O)(NCCCN1CCN(c2cccc(Cl)c2Cl)CC1)c1ccc2cccnc2c1 | 47 nM |  |  |  |  | 7400 nM | 90% | 10.2 mg/kg | 79% | 224 nM | 16 nM |  | 99% | 2800 nM | 186 nM | Non-toxic | 50.5% | Ki [18]: 14 nM; Activity (Mus musculus [23]): Toxic; Ki [20]: 12 nM; Activity (Mus musculus [24]): Active; Activity (Mus musculus [25]): 57%; Ki [22]: 257 nM
O=S(=O)(NCCCCN1CCN(c2cccc(Cl)c2Cl)CC1)c1cncc2ccccc12 | 90 nM | 21 nM | 59 nM | 220 nM | 11.3 mg/kg | 15000 nM | 93% | 5.3 mg/kg |  | 783 nM | 8 nM | 44% | 95% | 820 nM | 160 nM | Non-toxic | 44.6% | inhibition (Mus musculus [26]): Active
O=S(=O)(NCCCCN1CCN(c2cccc(Cl)c2Cl)CC1)c1cnc2ccc(Cl)cc2c1 | 42 nM | 41 nM | 88 nM | 555 nM |  |  |  |  |  |  |  |  |  |  |  |  |  | 
O=S(=O)(NCCCN1CCN(c2cccc(Cl)c2Cl)CC1)c1cnc2ccc(Cl)cc2c1 | 115 nM | 46 nM | 23 nM | 901 nM |  |  |  |  |  |  |  |  |  |  |  |  |  | 
O=S(=O)(NCCCCN1CCN(c2cccc(Cl)c2Cl)CC1)c1cccc2cccnc12 | 29 nM | 27 nM | 112 nM | 598 nM |  |  |  |  |  |  |  |  |  |  |  |  |  | 
